Consider 17 compounds from ChEMBL document CHEMBL1137783 (J Med Chem, 2009).

T1 sequence (Q12809 whole entry): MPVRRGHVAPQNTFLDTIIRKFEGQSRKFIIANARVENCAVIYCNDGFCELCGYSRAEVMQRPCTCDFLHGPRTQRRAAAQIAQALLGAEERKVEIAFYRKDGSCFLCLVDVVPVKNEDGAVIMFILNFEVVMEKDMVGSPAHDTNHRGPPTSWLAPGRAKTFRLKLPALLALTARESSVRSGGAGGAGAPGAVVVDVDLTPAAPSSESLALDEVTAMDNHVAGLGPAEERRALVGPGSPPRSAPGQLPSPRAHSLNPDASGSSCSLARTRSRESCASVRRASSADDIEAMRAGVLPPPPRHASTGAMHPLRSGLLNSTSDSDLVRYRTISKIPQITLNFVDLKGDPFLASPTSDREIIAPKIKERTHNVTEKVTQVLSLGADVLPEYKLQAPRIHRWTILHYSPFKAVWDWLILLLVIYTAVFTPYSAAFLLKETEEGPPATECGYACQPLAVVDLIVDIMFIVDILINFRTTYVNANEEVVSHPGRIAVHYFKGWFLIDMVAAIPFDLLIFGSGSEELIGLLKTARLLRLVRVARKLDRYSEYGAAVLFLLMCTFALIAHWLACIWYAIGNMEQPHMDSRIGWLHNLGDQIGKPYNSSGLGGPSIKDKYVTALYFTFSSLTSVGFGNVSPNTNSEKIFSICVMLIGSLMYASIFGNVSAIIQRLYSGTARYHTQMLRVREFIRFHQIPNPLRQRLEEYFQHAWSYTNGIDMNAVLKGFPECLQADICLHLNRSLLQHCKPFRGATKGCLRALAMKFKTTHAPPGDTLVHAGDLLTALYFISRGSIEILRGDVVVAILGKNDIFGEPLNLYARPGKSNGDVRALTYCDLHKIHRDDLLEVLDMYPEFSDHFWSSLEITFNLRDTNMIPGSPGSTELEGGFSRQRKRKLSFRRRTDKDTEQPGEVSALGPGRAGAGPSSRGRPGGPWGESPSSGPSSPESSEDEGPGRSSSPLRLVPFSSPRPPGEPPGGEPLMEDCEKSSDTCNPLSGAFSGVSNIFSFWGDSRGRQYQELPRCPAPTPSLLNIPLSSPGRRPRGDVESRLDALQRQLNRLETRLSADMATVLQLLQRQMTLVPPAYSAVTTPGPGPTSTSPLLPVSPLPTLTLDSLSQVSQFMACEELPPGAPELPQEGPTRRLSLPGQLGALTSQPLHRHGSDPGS

One data set concerns the target T1, hERG (KCNH2) (Homo sapiens, UniProt Q12809). As to the kind of experiment: Inhibition of human ERG channel at 3 uM.
Conditions: not given
As a reminder, the inhibition is the relative decrease from the control value, in per cent. The low end stands for a weak effect, the high end for a strong effect. For the compound `CC(C)(CO)NC(=O)[C@H]1CC[C@H](c2nc(-c3cccc(C(F)(F)F)c3)c[nH]2)CC1`, at 3 µM the inhibition was 6%.

The next data set concerns the target T1, hERG (KCNH2). Put plainly: Inhibition of human ERG channel at 300 uM.
Conditions: not given
The compound `Cc1nnc(C(C)C)n1C1CC2CCC(C1)N2CC[C@H](NC(=O)C1CCCC1)c1ccccc1` (some centres undefined) gave an inhibition at 300 µM of 18%. On the same count and under the same terms, as for `Cc1nnc(C(C)C)n1C1CC2CCC(C1)N2CC[C@H](NC(=O)CCC(F)(F)F)c1ccccc1` (some centres undefined), the figure is 14%. The same measure, in the same setting: for `Cc1nnc(C(C)C)n1C1CC2CCC(C1)N2CC[C@H](NC(=O)C1CCC1)c1ccccc1` (some centres undefined) the value was 30%.

A further data set concerns the target T1, hERG (KCNH2). As to the kind of experiment: (§1) Inhibition of human ERG channel. The conditions noted are these: human.
For orientation: Ki means the equilibrium dissociation constant of an inhibitor or competing ligand from its target. In turn, `c1ccc(-c2[nH]c3ccccc3c2C2CCNCC2)cc1` had a Ki of 5700 nM.

Compound `Fc1ccc(-c2[nH]c3cc(F)ccc3c2C2CCCNC2)cc1` (centres undefined) had a Ki of 1300 nM.

`Fc1ccc2c([C@@H]3CNCC[C@H]3F)c(-c3ccsc3)[nH]c2c1` had a Ki of 1500 nM.

On to `CN1CCCC(c2c(-c3ccccc3)[nH]c3ccccc23)C1` (centres undefined), for which the inhibition constant Ki was 9600 nM. `Fc1ccc(-c2[nH]c3cc(F)ccc3c2[C@@H]2CNCC[C@H]2F)cc1`: the inhibition constant (Ki) was 1600 nM. Take `Fc1ccc2c([C@@H]3CNCC[C@H]3F)c(-c3ccc4ccccc4c3)[nH]c2c1`: the Ki is 500 nM. In turn, `Fc1ccc2c([C@@H]3CNCC[C@H]3F)c(-c3cccc4ccccc34)[nH]c2c1` showed a Ki of 110 nM.

In a further data set the target is Voltage-gated inwardly rectifying potassium channel KCNH2 (Homo sapiens, UniProt Q12809). Described as §1.
Chain of Voltage-gated inwardly rectifying potassium channel KCNH2 (Q12809 whole entry): as above
Conditions: not given
For orientation: IC50 means the concentration at which inhibition is half-maximal. Higher therefore signals weaker potency in that assay. On to `Cc1cc2c(s1)Nc1ccccc1N=C2N1CCN(C)CC1` [OLANZAPINE], for which 231 nM corresponded to half-maximal inhibition (IC50). The compound `c1ccc(-c2[nH]c3ccccc3c2C2CC3CCC(C2)N3)cc1` (centres undefined) showed a Ki of 18 nM. `Fc1ccc2[nH]c(-c3ccccc3)c([C@@H]3CNCC[C@H]3F)c2c1` showed a Ki of 7000 nM. In turn, `CN1Cc2cncn2Cc2ccc(C#N)c(c2)Oc2ccc3c(c2)[C@@H](CC3)N2CC[C@@H]1C2=O` showed an IC50 of 2600 nM. On the same count and under the same terms, as for `C[N+]1([O-])CCN(C2=Nc3cc(Cl)ccc3Nc3ccccc32)CC1`, the figure is 133000 nM. Same read-out and setting: as for `CC(=O)Nc1cccc(N2CCN(CCCCNS(=O)(=O)CC3CCCCC3)CC2)c1` [NALUZOTAN], the figure is 3800 nM.

Staying with this data set, now noted: human.
Usually pIC50 stands for the negative decadic logarithm of the IC50, by convention in mol/L. High values mean a low IC50, low ones a high IC50. In turn, `Cc1cc2c(s1)Nc1ccccc1N=C2N1CCN(C)CC1` [OLANZAPINE] registered a pIC50 of 6.636. Still for that read-out and setting: for `C[N+]1([O-])CCN(C2=Nc3cc(Cl)ccc3Nc3ccccc32)CC1` the value was 3.875.
